Like-named read-outs stand apart in the source and are kept apart here. Blank lines part the entries; values can stand above or below the molecule they belong to. No end group written: not given here.
Assays:
[1] = Pharmacokinetics of GLP-1 compound after oral gavage with delivery agent (subcutaneous control); type: in vivo, Male Sprague Dawley rats; conditions: rat
Procedure: A solution of Val^8-Glu^22-GLP-1 was prepared by dissolving the GLP-1 compound in distilled water to yield a concentration of 7 mg/mL. The pH was slowly raised to 10.5 with 2 N NaOH, followed by incubation at room temperature for 30 minutes. A volume of 1 M Tris buffer, pH 8.0 was added to give a final buffer concentration 20 mM Tris, and the pH adjusted to pH 7.8 with 1 N or 5 N HCl. The solution was then filtered through a low protein binding […] syringe filter (Millex GV, Millipore) and the concentration of the GLP-1 compound was determined by UV spectroscopy. The solution was diluted to a final concentration of 5.5 mg/mL using 20 mM Tris buffer, pH 7.8. The peptide solution was then stored in 1.0 mL aliquots at −70° C. until used.
Final formulations were freshly prepared approximately 30 minutes to 1 hour prior to in vivo dosing by combining 4.5 mL of the delivery agent with 0.5 mL of the GLP-1 compound. The final formulations were dosed by oral gavage at 2 mL/kg (1.1 mg/kg GLP-1 compound, 300 mg/kg delivery agent) with to Male Sprague Dawley rats that were fasted for 12 hours prior to dosing. A subcutaneous dose of the GLP-1 compound alone was used as a control (0.011 mg/kg).

[2] = Mean particle size of delivery agent suspension (Coulter LS Particle Size Analyzer); type: physicochemical; conditions: suspension in 4% w/v Klucel
Procedure: (§1) Approximately 1.7 mL of suspending agent was added to a Type I glass vial containing 300 mg of delivery agent number 9. The preparation was cooled on ice for 3 minutes, followed by probe sonication on ice for 30 minutes using a Misonix Sonicator® Ultrasonic Processor XL ( 3/16th inch microtip). […] The formulation was then diluted to 150 mg/mL with the suspending agent.

[3] = Solubility of delivery agents at desired formulation concentration; type: physicochemical; conditions: for solubility at the desired concentration of 150 mg/mL: 0.1 N NaOH base, further base to pH 11.5, and cosolvents
Procedure: Approximately 600 mg of delivery agent number 15 was weighed into Type I glass vials to which 3 mL of base (0.1 N NaOH, pH 12.7) was added to achieve a final concentration of 200 mg/mL. The pH was adjusted to 7.1 and the concentration was estimated to be 171 mg/mL. Delivery agent number 15 was then diluted to 150 mg/mL with Milli-Q® water.
Delivery agents number 40 and 9 were insoluble at the desired concentration of 150 mg/mL when followed example 1. […] Cosolvents tested included ethanol, N-methylpyrrolidone, N,N-dimethylacetamide, N,N-dimethylformamide, glycofurol, ethoxydiol, propylene glycol, polyethyleneglycol 300, and polyvinylpyrrolidone.
However, for delivery agent number 40, 150 mg was weighed into a Type I vial, to which 1 mL of Milli-Q® water was added, and the pH adjusted with 10 N NaOH.
as §1

[4] = Stability studies of delivery agents, HPLC after three days storage; type: physicochemical; conditions: prepared at 150 mg/mL
Procedure: Stability studies were conducted for delivery agent numbers 9, 15, and 40. The delivery agents were freshly prepared as described above respectively to achieve the desired concentration of 150 mg/mL. The samples were divided into three 2 mL aliquots and stored at −20° C., 4° C., and ambient for three days. HPLC assay development and analyses were performed at the end of the storage period.

[5] = Peptide A 1.1 mg/kg + delivery agent 300 mg/kg, oral gavage, Tris solution
[6] = Peptide A 1.1 mg/kg + delivery agent 300 mg/kg, oral gavage, Tris suspension
[7] = stored at ambient for three days
[8] = stored at −20° C. for three days
[9] = Peptide A 1.1 mg/kg + delivery agent 300 mg/kg, oral gavage, Klucel suspension
[10] = Val8-Glu22-GLP-1 1.1 mg/kg + delivery agent 300 mg/kg, oral gavage, solution
[11] = Peptide A alone, no delivery agent, Tris solution, subcutaneous control 0.011 mg/kg

Molecule: O=C(O)CCCCCCCNC(=O)c1ccccc1 [Delivery agent 2]
AUC [1, 5]: 7202 pg·min/mL

Molecule: CN(CCCCCCCC(=O)O)C(=O)c1ccccc1 [Delivery agent 3]
AUC [1, 5]: 237422.3 pg·min/mL

Molecule: O=C(O)CCCCCCCNC(=O)c1ccccc1O [Delivery agent 5]
AUC [1, 6]: 40984 pg·min/mL

Molecule: O=C(O)CCCCCCCCCNC(=O)c1ccccc1O [Delivery agent 6]
AUC [1, 6]: 37926 pg·min/mL

Molecule: CN(C)CCCCCCNC(=O)c1ccccc1O [Delivery agent 7]
AUC [1, 5]: 204611 pg·min/mL

Molecule: CN(CCCCCCCC(=O)O)C(=O)c1ccccc1O [Delivery agent 8]
AUC [1, 5]: 173548.6 pg·min/mL

Molecule: O=C(O)CCCCCCCNC(=O)c1cc(Cl)ccc1O [Delivery agent 9]
AUC ([1]; Val8-Glu22-GLP-1 1.1 mg/kg + delivery agent 300 mg/kg, oral gavage, Klucel suspension): 28144 ± 38576 pg·min/mL | mean particle size before sonication [2]: 48 μm | mean particle size after sonication ([2]; probe sonication 30 minutes, pH 7.98): 8 μm | solubility at the desired concentration of 150 mg/mL [3]: insoluble | aqueous solubility ([3]; aqueous): aqueous insolubility | Stability Data: delivery agent concentration ([4]; stored at 4° C. for three days): 148.6 mg/mL | Stability Data: delivery agent concentration [4, 7]: 146.0 mg/mL | Stability Data: delivery agent concentration [4, 8]: 153.2 mg/mL

Molecule: Cc1cccc(C(=O)NCCCCCCCC(=O)[O-])c1[O-].[Na+].[Na+] [Delivery agent 12]
AUC [1, 9]: 35239 pg·min/mL

Molecule: COc1cc(O)ccc1C(=O)NCCCCCCCC(=O)O [Delivery agent 14]
AUC [1, 5]: 160066.6 pg·min/mL

Molecule: COc1ccc(C(=O)NCCCCCCCC(=O)[O-])c([O-])c1.[Na+].[Na+] [Delivery agent 15]
AUC [1, 5]: 254291 pg·min/mL | AUC ([1]; Peptide B + delivery agent, oral gavage, Tris solution): 82656 pg·min/mL | AUC [1, 10]: 254291 ± 129387 pg·min/mL | Stability Data: delivery agent concentration ([4]; stored at 4° C. for three days): 138.2 mg/mL | Stability Data: delivery agent concentration [4, 7]: 137.4 mg/mL | Stability Data: delivery agent concentration [4, 8]: 135.5 mg/mL

Molecule: COc1ccc(C(=O)NCCCCCCCN(C)C)c(O)c1 [Delivery agent 16]
AUC [1, 9]: 19972 pg·min/mL

Molecule: CN(C(=O)c1ccccc1)c1ccc(CCCC(=O)[O-])cc1.[Na+] [Delivery agent 19]
AUC [1, 6]: 290106.4 pg·min/mL

Molecule: O=C(N[C@@H](Cc1ccccc1)C(=O)O)c1ccccc1O [Delivery agent 20]
AUC [1, 6]: 21948 pg·min/mL

Molecule: O=C([O-])Cc1ccc(NC(=O)c2ccccc2O)cc1.[Na+] [Delivery agent 21]
AUC [1, 6]: 57166 pg·min/mL

Molecule: COc1ccccc1C(=O)Nc1ccc(CCCC(=O)O)cc1 [Delivery agent 23]
AUC [1, 5]: 15747 pg·min/mL

Molecule: CN(C)c1ccc(C(=O)Nc2ccc(CCCC(=O)O)cc2)cc1 [Delivery agent 24]
AUC [1, 5]: 21559.2 pg·min/mL

Molecule: O=C(O)CCCCCCCOc1ccccc1O [Delivery agent 26]
AUC [1, 5]: 113480.1 pg·min/mL

Molecule: HVEGTFTSDVSSYLEEQAAKEFIAWLVKGRG [A]
AUC [1, 11]: 93635 pg·min/mL | Cmax [1, 11]: 3.781 ng/mL | Tmax [1, 11]: 10 ± 0 min | AUC ([1]; male, Sprague Dawley, in vivo, sc, GLP-1 compound alone, solution, subcutaneous control 0.011 mg/kg, read-out: AUC (converted)): 93600 pg·min/mL | Cmax ([1]; male, Sprague Dawley, in vivo, sc, GLP-1 compound alone, solution, subcutaneous control 0.011 mg/kg, read-out: Cmax): 3.78 ± 1.1 ng/mL | Tmax ([1]; male, Sprague Dawley, in vivo, sc, GLP-1 compound alone, solution, subcutaneous control 0.011 mg/kg, read-out: Tmax (converted)): 10 min

Now from value to molecule:

AUC ([1]; Peptide A 1.1 mg/kg + delivery agent 300 mg/kg, oral gavage, Klucel solution): 4789.7 pg·min/mL | AUC [1, 5]: 19304.1 pg·min/mL
Molecule: O=C(N[C@@H](Cc1ccccc1)C(=O)O)C1CCCCC1 (stereo in doubt) [Delivery agent 46]

AUC [1, 9]: 299137.2 pg·min/mL
Molecule: O=C(O)CCCCCCCOc1cccc(O)c1 [Delivery agent 27]

AUC [1, 5]: 59543 pg·min/mL | AUC [1, 6]: 13116 pg·min/mL
Molecule: CC(=O)c1ccccc1OCCCCCCCC(=O)O [Delivery agent 28]

AUC [1, 5]: 62303 pg·min/mL
Molecule: CC(=O)c1ccccc1OCCCCCCCC(=O)[O-].[Na+] [Delivery agent 29]

AUC [1, 5]: 35259 pg·min/mL
Molecule: CC(=O)c1ccccc1OCc1ccc(C(=O)O)cc1 [Delivery agent 30]

AUC [1, 5]: 30164 pg·min/mL
Molecule: CNC(=O)c1ccccc1OCCCCCCCC(=O)O [Delivery agent 31]

AUC [1, 6]: 130175.6 pg·min/mL
Molecule: O=C(O)CCCCCCCNC(=O)c1ccccn1 [Delivery agent 32]

AUC [1, 6]: 6964.2 pg·min/mL
Molecule: O=C(O)CCCCCCCNC(=O)c1ccncc1 [Delivery agent 34]

AUC [1, 5]: 42036 pg·min/mL
Molecule: O=C(O)CCCCCCCNS(=O)(=O)c1ccccc1 [Delivery agent 36]

AUC [1, 5]: 5669 pg·min/mL
Molecule: O=C(O)[C@@H](NS(=O)(=O)c1ccccc1)c1ccccc1 [Delivery agent 38]

AUC [1, 5]: 6087 pg·min/mL
Molecule: O=C(O)c1ccc(NS(=O)(=O)c2ccccc2)cc1 [Delivery agent 39]

AUC [1, 5]: 94215 pg·min/mL | AUC [1, 10]: 94215 ± 66732 pg·min/mL | solubility at the desired concentration of 150 mg/mL [3]: insoluble | solution concentration achieved ([3]; Milli-Q water, pH adjusted with 10 N NaOH, pH 8.22): 150 mg/mL | Stability Data: delivery agent concentration ([4]; stored at 4° C. for three days): 135.1 mg/mL | Stability Data: delivery agent concentration [4, 7]: 135.3 mg/mL | Stability Data: delivery agent concentration [4, 8]: 134.0 mg/mL
Molecule: O=C(O)CCCc1ccc(NS(=O)(=O)c2ccccc2)cc1 [Delivery agent 40]

AUC [1, 5]: 21679.1 pg·min/mL
Molecule: CN(c1ccc(CCCC(=O)O)cc1)S(=O)(=O)c1ccccc1 [Delivery agent 41]

AUC [1, 6]: 7281 pg·min/mL
Molecule: O=C(O)CCCCCCCNC(=O)C1CCCCC1 [Delivery agent 43]

AUC [1, 5]: 55671 pg·min/mL
Molecule: O=C(O)CCCc1ccc(NC(=O)C2CCCCC2)cc1 [Delivery agent 44]

AUC [1, 5]: 13468.0 pg·min/mL
Molecule: CC(C)C[C@H](NC(=O)C1CCCCC1)C(=O)O [Delivery agent 45]

AUC [1, 5]: 6068.5 pg·min/mL
Molecule: CC(C)[C@H](NC(=O)C1CCCCC1)C(=O)O [Delivery agent 48]

AUC [1, 5]: 10838 pg·min/mL
Molecule: O=C(O)CCCCCCCNC(=O)/C=C/c1ccccc1F [Delivery agent 51]

AUC [1, 6]: 337360 pg·min/mL
Molecule: O=C(O)CCCCCCc1nnc(-c2ccccc2)o1 [Delivery agent 53]

AUC [1, 9]: 218240.8 pg·min/mL | AUC [1, 6]: 684087.3 pg·min/mL
Molecule: O=C(O)CCCCc1nnc(-c2ccccc2O)o1 [Delivery agent 54]

AUC [1, 5]: 20177.7 pg·min/mL
Molecule: O=C(N[C@H](C(=O)O)c1ccccc1)c1ccccc1 [Delivery agent 55]

AUC [1, 5]: 48324.4 pg·min/mL
Molecule: O=C(N[C@@H](Cc1ccccc1)C(=O)O)c1ccccc1 [Delivery agent 56]

Reference: patent publication US7939494B2, “Method for administering GLP-1 molecules” (Emisphere Technologies, Inc., priority 2002, dated 2011)
